Assay results as given in PubChem BioAssay (NCI).
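Step 1: Grow cells in 96-well plates. Step 2: Expose to compound for 48 hours at 5 concentrations. Step 3: Interpolate endpoints linearly; if unreached, use highest concentration. The concentration for full growth arrest is given as TGI.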

Key:
Experiment in all cases: NCI anticancer screen, dose series, 48 h
[1] = system: NCI/ADR-RES ovarian
[2] = system: ACHN renal
[3] = system: A498 renal
[4] = system: HL-60(TB) leukemia
[5] = system: CAKI-1 renal
[6] = system: MDA-MB-231 breast
[7] = system: NCI-H460 lung
[8] = system: MCF7 breast
[9] = system: SR leukemia
[10] = system: SN12C renal
[11] = system: HOP-92 NSCLC
[12] = system: SNB-19 CNS
[13] = system: 786-0 renal
[14] = system: EKVX NSCLC
[15] = system: SK-MEL-28 melanoma
[16] = system: HS 578T breast
[17] = system: U251 CNS
[18] = system: NCI-H23 lung
[19] = system: A549 NSCLC
[20] = system: MALME-3M melanoma
[21] = system: RXF 393 renal
[22] = system: HCT-116 colon
[23] = system: OVCAR-3 ovarian
[24] = system: UO-31 renal
[25] = system: SF-268 CNS
[26] = system: PC-3 prostate
[27] = system: MDA-MB-435
[28] = system: HOP-62 NSCLC
[29] = system: SK-MEL-2 melanoma
[30] = system: TK-10 renal
[31] = system: HT29 colon
[32] = system: M14 melanoma
[33] = system: T-47D breast
[34] = system: IGROV1 ovarian
[35] = system: KM12 colon
[36] = system: LOX IMVI melanoma
[37] = system: NCI-H522 lung
[38] = system: MDA-N
[39] = system: SF-539 CNS
[40] = system: NCI-H226 lung
[41] = system: SF-295 CNS
[42] = system: SK-OV-3 ovarian
[43] = system: MOLT-4 leukemia
[44] = system: SW-620 colon
[45] = system: COLO 205 colon
[46] = system: K-562 leukemia
[47] = system: SK-MEL-5 melanoma
[48] = system: OVCAR-8 ovarian
[49] = system: RPMI-8226 leukemia
[50] = system: HCC-2998 colon
[51] = system: CCRF-CEM leukemia
[52] = system: HCT-15 colon
[53] = system: DU-145 prostate
[54] = system: UACC-62 melanoma
[55] = system: SNB-75 CNS
[56] = system: OVCAR-4 ovarian
[57] = system: UACC-257 melanoma
[58] = system: OVCAR-5 ovarian

Measured: TGI

OC(c1cc(C(O)(C(F)(F)F)C(F)(F)F)ncn1)(C(F)(F)F)C(F)(F)F
not listed: [58]
> 10 µM: all other assays above

CCOC(=O)/C(C(=S)NC)=C(/N)N1CCCC1
not listed: [8] | [55]
> 100 µM: all other assays above
